Numbers after ± are expanded uncertainties.

A short description of data set [1]: xn = mol fraction of the nth substance listed. The following applies: 298.15 K, 101 kPa, Liquid.
Data set [2] is described as follows: refractive index (Na D-line) (dimensionless). As to conditions: 298.15 K; 101.33 kPa; Liquid; Standard Abbe refractometry.
For data set [3] the following is noted: 298.15 K, 101.33 kPa, Liquid.

As for `Cc1ccccc1` [toluene] + CC1CCCCC1, the mass density (commonly mass per unit of volume) in data set [1] (x2 = 0) is listed as 862.17 ± 0.18 kg/m3.
Turning to `CC1CCCCC1` [methylcyclohexane] + c1ccccc1, the mass density was 865.01 ± 0.18 kg/m3 in data set [1] (x1 = 0.0504); 857.13 ± 0.19 kg/m3 in data set [1] (x1 = 0.099); 841.92 ± 0.2 kg/m3 in data set [1] (x1 = 0.1998); 829.01 ± 0.22 kg/m3 in data set [1] (x1 = 0.2978); 816.54 ± 0.24 kg/m3 in data set [1] (x1 = 0.3991); 805.76 ± 0.26 kg/m3 in data set [1] (x1 = 0.4993). Besides, the mass density is reported as 796.03 ± 0.28 kg/m3 in data set [1] (x1 = 0.598); 787.22 ± 0.3 kg/m3 in data set [1] (x1 = 0.6991); 779.31 ± 0.32 kg/m3 in data set [1] (x1 = 0.7981); 772.04 ± 0.34 kg/m3 in data set [1] (x1 = 0.8961); 768.25 ± 0.35 kg/m3 in data set [1] (x1 = 0.9523); 765.02 ± 0.36 kg/m3 in data set [1] (x1 = 1).
For `CC1CCCCC1` [methylcyclohexane] + CCc1ccccc1, the mass density in data set [1] (x1 = 0.0494) turned out to be 857.22 ± 0.19 kg/m3; in data set [1] (x1 = 0.0975), 852.13 ± 0.19 kg/m3; in data set [1] (x1 = 0.1983) it was 841.55 ± 0.21 kg/m3; in data set [1] (x1 = 0.2981), 831.2 ± 0.23 kg/m3; in data set [1] (x1 = 0.4008), 820.93 ± 0.25 kg/m3; in data set [1] (x1 = 0.5005), 811.01 ± 0.26 kg/m3. In addition, the mass density in data set [1] (x1 = 0.6001) came to 801.41 ± 0.28 kg/m3; in data set [1] (x1 = 0.7006), 792.06 ± 0.3 kg/m3; in data set [1] (x1 = 0.7952) it was 783.15 ± 0.32 kg/m3; in data set [1] (x1 = 0.8949), 774.23 ± 0.34 kg/m3; in data set [1] (x1 = 0.9495), 769.34 ± 0.35 kg/m3; in data set [1] (x1 = 1) it was 765.02 ± 0.36 kg/m3.
As to `Cc1ccccc1` [toluene], in data set [2], the refractive index (as a rule, the speed of light in vacuum divided by its phase velocity in the sample) worked out at 1.49399 ± 0.00068. Moreover, the mass density in data set [3] is listed as 862.17 ± 0.18 kg/m3.
The corresponding values for `CCc1ccccc1` [ethylbenzene] are 1.49304 ± 0.00068 and 862.51 ± 0.18 kg/m3.
The matching figures for `CC1CCCCC1` [methylcyclohexane]: 1.42062 ± 0.0007 and 765.02 ± 0.36 kg/m3.
On to `c1ccccc1` [benzene] + CC1CCCCC1, for which the mass density in data set [1] (x2 = 0) worked out at 873.57 ± 0.17 kg/m3.
In the case of `CCOS(=O)(=O)[O-].CC[n+]1cccc(C)c1` [1-ethyl-3-methylpyridinium ethylsulfate], in data set [2], the refractive index is reported as 1.50591 ± 0.0007. Also, in data set [3] (Vibrating tube method), the mass density stood at 1219.61 ± 0.42 kg/m3.
`CC1CCCCC1` [methylcyclohexane] + Cc1ccccc1: the mass density was 855.9 ± 0.18 kg/m3 in data set [1] (x1 = 0.05); 849.91 ± 0.19 kg/m3 in data set [1] (x1 = 0.0998); 838.24 ± 0.21 kg/m3 in data set [1] (x1 = 0.198); 827.41 ± 0.22 kg/m3 in data set [1] (x1 = 0.2951); 816.83 ± 0.24 kg/m3 in data set [1] (x1 = 0.3968); 806.9 ± 0.26 kg/m3 in data set [1] (x1 = 0.4959). The mass density in data set [1] (x1 = 0.5973) was determined as 797.45 ± 0.28 kg/m3; in data set [1] (x1 = 0.697), 788.64 ± 0.3 kg/m3; in data set [1] (x1 = 0.7954), 780.42 ± 0.32 kg/m3; in data set [1] (x1 = 0.8932), 772.71 ± 0.34 kg/m3; in data set [1] (x1 = 0.9487) it was 768.66 ± 0.35 kg/m3; in data set [1] (x1 = 1) it was 765.02 ± 0.36 kg/m3.
On to `CCc1ccccc1` [ethylbenzene] + CC1CCCCC1, for which, in data set [1] (x2 = 0), the mass density came to 862.51 ± 0.18 kg/m3.
With `c1ccccc1` [benzene], the refractive index in data set [2] is reported as 1.49774 ± 0.00068. Besides, the mass density in data set [3] is given as 873.57 ± 0.17 kg/m3.

For the origin of these results see the NIST ThermoML archive (doi:10.1021/je900807v).
